Assays:
Details in all cases: 72 h
[1] = test system: U2OS; assay: GR50 (concentration giving GR = 0.5)
Protocol: (§1)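 U2OS cells treated with full dose titrations of drug; live and dead cells counted by STACK microscopy (mKate2 nuclei, SYTOX Green) at 72 h, biological triplicates. GR and FV dose responses were fitted with 4-parameter logistic models (GR lower bound -1). GRADE (0-100) is the rescaled angle of a linear fit of FV versus GR at doses with GR >= 0, giving the percentage of the response due to cell death.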

[2] = test system: U2OS; assay: fractional viability (live cells / total cells); higher = less cell death
Protocol: (§2)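 U2OS::Nuc-mKate2 cells seeded in 96-well plates and treated with eight- to ten-point half-log or log dilutions of drug in the presence of 50 nM SYTOX Green. Live (mKate2+) and dead (SYTOX+) cells were counted by IncuCyte STACK live-cell microscopy at 72 h; biological triplicates. GR is the normalised growth-rate inhibition value (Hafner 2016; 1 = untreated growth, <0 = population shrinking). FV is live/(live+dead) cells, not normalised.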

[3] = test system: U2OS; assay: FV IC50 (concentration giving fractional viability 0.5); higher = less potent killing
Protocol: as §1

[4] = test system: U2OS; assay: drug GRADE (percent of response due to cell death) (% (0-100)); higher = more death-driven response
Protocol: as §1

[5] = test system: U2OS; assay: normalized growth rate inhibition value (GR) relative to untreated cells (GR value (dimensionless, 1 = untreated growth)); higher = less growth inhibition
Protocol: as §2

[6] = test system: U2OS; assay: GRmin (fitted minimal GR value at highest effect) (GR value (dimensionless)); higher = less efficacious
Protocol: as §1

## Cc1cc(Nc2ncc(Cl)c(Nc3ccccc3S(=O)(=O)C(C)C)n2)c(OC(C)C)cc1C1CCNCC1 [Ceritinib]
[1]
  GR50: 3.32 µM
[2]; 0.00100578 µM
  fractional viability: 0.991
[2]; 0.00317827 µM
  fractional viability: 0.989
[2]; 0.0100433 µM
  fractional viability: 0.992
[2]; 0.0317369 µM
  fractional viability: 0.988
[2]; 0.100289 µM
  fractional viability: 0.989
[2]; 0.316912 µM
  fractional viability: 0.984
[2]; 1.00144 µM
  fractional viability: 0.98
[2]; 3.16456 µM
  fractional viability: 0.943
[2]; 10 µM
  fractional viability: 0
[3]
  FV IC50: 5.27 µM
[4]
  drug GRADE: 7.14
[5]; 0.00100578 µM
  normalized growth rate inhibition value: 1.05
[5]; 0.00317827 µM
  normalized growth rate inhibition value: 1.06
[5]; 0.0100433 µM
  normalized growth rate inhibition value: 1.15
[5]; 0.0317369 µM
  normalized growth rate inhibition value: 1.13
[5]; 0.100289 µM
  normalized growth rate inhibition value: 1.02
[5]; 0.316912 µM
  normalized growth rate inhibition value: 0.964
[5]; 1.00144 µM
  normalized growth rate inhibition value: 0.904
[5]; 3.16456 µM
  normalized growth rate inhibition value: 0.588
[5]; 10 µM
  normalized growth rate inhibition value: -1

## CCc1cnn2c(NCc3ccc[n+]([O-])c3)cc(N3CCCC[C@H]3CCO)nc12 [Dinaciclib]
[1]
  GR50: 0.00437 µM
[2]; 0.000100578 µM
  fractional viability: 0.986
[2]; 0.000317827 µM
  fractional viability: 0.983
[2]; 0.00100433 µM
  fractional viability: 0.984
[2]; 0.00317369 µM
  fractional viability: 0.972
[2]; 0.0100289 µM
  fractional viability: 0.41
[2]; 0.0316912 µM
  fractional viability: 0.32
[2]; 0.100144 µM
  fractional viability: 0.339
[2]; 0.316456 µM
  fractional viability: 0.35
[2]; 1 µM
  fractional viability: 0.406
[3]
  FV IC50: 0.00807 µM
[4]
  drug GRADE: 3.29
[6]
  GRmin: -0.376
[5]; 0.000100578 µM
  normalized growth rate inhibition value: 0.892
[5]; 0.000317827 µM
  normalized growth rate inhibition value: 0.802
[5]; 0.00100433 µM
  normalized growth rate inhibition value: 0.876
[5]; 0.00317369 µM
  normalized growth rate inhibition value: 0.756
[5]; 0.0100289 µM
  normalized growth rate inhibition value: -0.288
[5]; 0.0316912 µM
  normalized growth rate inhibition value: -0.406
[5]; 0.100144 µM
  normalized growth rate inhibition value: -0.368
[5]; 0.316456 µM
  normalized growth rate inhibition value: -0.358
[5]; 1 µM
  normalized growth rate inhibition value: -0.373

## CC(=O)O[C@@]12CO[C@@H]1C[C@H](O)[C@@]1(C)C(=O)[C@H](O)C3=C(C)[C@@H](OC(=O)[C@H](O)[C@@H](NC(=O)OC(C)(C)C)c4ccccc4)C[C@@](O)([C@@H](OC(=O)c4ccccc4)[C@H]21)C3(C)C [Docetaxel]
[1]
  GR50: 0.000853 µM
[2]; 0.00100578 µM
  fractional viability: 0.707
[2]; 0.00317827 µM
  fractional viability: 0.588
[2]; 0.0100433 µM
  fractional viability: 0.41
[2]; 0.0317369 µM
  fractional viability: 0.413
[2]; 0.100289 µM
  fractional viability: 0.323
[2]; 0.316912 µM
  fractional viability: 0.351
[2]; 1.00144 µM
  fractional viability: 0.252
[2]; 3.16456 µM
  fractional viability: 0.238
[2]; 10 µM
  fractional viability: 0.255
[3]
  FV IC50: 0.00477 µM
[4]
  drug GRADE: 69.6
[6]
  GRmin: -0.193
[5]; 0.00100578 µM
  normalized growth rate inhibition value: 0.339
[5]; 0.00317827 µM
  normalized growth rate inhibition value: 0.223
[5]; 0.0100433 µM
  normalized growth rate inhibition value: 0.0565
[5]; 0.0317369 µM
  normalized growth rate inhibition value: -0.0266
[5]; 0.100289 µM
  normalized growth rate inhibition value: -0.14
[5]; 0.316912 µM
  normalized growth rate inhibition value: -0.174
[5]; 1.00144 µM
  normalized growth rate inhibition value: -0.245
[5]; 3.16456 µM
  normalized growth rate inhibition value: -0.251
[5]; 10 µM
  normalized growth rate inhibition value: -0.164

## COc1cccc2c1C(=O)c1c(O)c3c(c(O)c1C2=O)C[C@@](O)(C(=O)CO)C[C@@H]3O[C@H]1C[C@H](N)[C@H](O)[C@H](C)O1 [Doxorubicin]
[1]
  GR50: 0.0332 µM
[2]; 0.00100578 µM
  fractional viability: 0.987
[2]; 0.00317827 µM
  fractional viability: 0.99
[2]; 0.0100433 µM
  fractional viability: 0.989
[2]; 0.0317369 µM
  fractional viability: 0.971
[2]; 0.100289 µM
  fractional viability: 0.967
[2]; 0.316912 µM
  fractional viability: 0.978
[2]; 1.00144 µM
  fractional viability: 0.851
[2]; 3.16456 µM
  fractional viability: 0.113
[2]; 10 µM
  fractional viability: 0
[3]
  FV IC50: 2.59 µM
[4]
  drug GRADE: 3.78
[6]
  GRmin: -0.576
[5]; 0.00100578 µM
  normalized growth rate inhibition value: 0.879
[5]; 0.00317827 µM
  normalized growth rate inhibition value: 1.06
[5]; 0.0100433 µM
  normalized growth rate inhibition value: 0.832
[5]; 0.0317369 µM
  normalized growth rate inhibition value: 0.368
[5]; 0.100289 µM
  normalized growth rate inhibition value: 0.0816
[5]; 0.316912 µM
  normalized growth rate inhibition value: 0.0197
[5]; 1.00144 µM
  normalized growth rate inhibition value: -0.0749
[5]; 3.16456 µM
  normalized growth rate inhibition value: -0.501
[5]; 10 µM
  normalized growth rate inhibition value: -1

From the supplement of paper PMC7394473
